Key:
[1] = molecular target: BMPR1B kinase (Homo sapiens, UniProt O00238); test: Kinase activity screening (330 kinases, HTRF or ADP-Glo); type: biochemical; conditions: screen of 330 kinases; II-1 2.5 mM, 25 nL in DMSO added to 2.5 µL kinase; Figure 1A
Description: (§1) A total of 330 kinase candidates (15-50 nM, 2.5 µL) were mixed with compound II-1 (2.5 mM, 25 nL, prepared in DMSO) and incubated at 25 °C for 10 minutes. Then, a mixture of kinase peptide substrate (0.2 mg/mL; supplier: GenScript) and ATP (10-60 µM; supplier: Promega; product number: V915B) was added (total 2.5 µL, prepared in assay buffer), and the reaction was carried out at 25 °C for 60-120 minutes. Finally, the reaction products were quantified using HTRF1 or ADP-Glo2 methods. During the kinase activity assay, the consumption of each substrate was kept below 10%, and each kinase assay was performed in duplicate.

[2] = molecular target: T1, BMPR2 (Homo sapiens, UniProt Q13873); test: Kinase activity assay (HTRF or ADP-Glo); type: biochemical
T1 sequence (Q13873 27-1038): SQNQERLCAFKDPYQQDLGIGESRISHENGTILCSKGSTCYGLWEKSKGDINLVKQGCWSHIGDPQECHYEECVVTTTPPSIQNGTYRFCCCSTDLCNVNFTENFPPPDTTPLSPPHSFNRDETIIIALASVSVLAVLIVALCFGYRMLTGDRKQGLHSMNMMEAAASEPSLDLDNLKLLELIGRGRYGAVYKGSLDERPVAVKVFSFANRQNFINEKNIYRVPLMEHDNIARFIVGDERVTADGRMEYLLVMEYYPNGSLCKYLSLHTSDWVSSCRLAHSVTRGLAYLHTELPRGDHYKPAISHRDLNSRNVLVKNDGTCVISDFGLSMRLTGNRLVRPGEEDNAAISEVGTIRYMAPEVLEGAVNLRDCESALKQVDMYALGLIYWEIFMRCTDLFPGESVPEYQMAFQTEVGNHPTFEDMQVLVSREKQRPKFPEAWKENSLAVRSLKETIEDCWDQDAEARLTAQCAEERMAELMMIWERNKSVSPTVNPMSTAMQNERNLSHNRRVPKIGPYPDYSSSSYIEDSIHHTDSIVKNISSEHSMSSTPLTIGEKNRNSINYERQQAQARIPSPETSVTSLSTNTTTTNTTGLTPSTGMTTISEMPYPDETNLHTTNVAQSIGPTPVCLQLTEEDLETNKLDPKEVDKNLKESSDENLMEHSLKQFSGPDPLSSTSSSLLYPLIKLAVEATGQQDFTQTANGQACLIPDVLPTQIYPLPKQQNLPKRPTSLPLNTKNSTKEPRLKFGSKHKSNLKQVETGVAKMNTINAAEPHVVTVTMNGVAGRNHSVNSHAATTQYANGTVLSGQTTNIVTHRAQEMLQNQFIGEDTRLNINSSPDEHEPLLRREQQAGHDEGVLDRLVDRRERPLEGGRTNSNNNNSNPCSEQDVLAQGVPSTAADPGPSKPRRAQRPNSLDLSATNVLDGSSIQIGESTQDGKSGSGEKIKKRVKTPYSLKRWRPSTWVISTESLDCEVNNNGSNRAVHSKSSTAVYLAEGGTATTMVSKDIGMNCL
Description: as §1

[3] = molecular target: T2, TGFBR1 (Homo sapiens, UniProt P36897); test: Kinase activity assay (HTRF or ADP-Glo); type: biochemical
T2 sequence (P36897 34-503): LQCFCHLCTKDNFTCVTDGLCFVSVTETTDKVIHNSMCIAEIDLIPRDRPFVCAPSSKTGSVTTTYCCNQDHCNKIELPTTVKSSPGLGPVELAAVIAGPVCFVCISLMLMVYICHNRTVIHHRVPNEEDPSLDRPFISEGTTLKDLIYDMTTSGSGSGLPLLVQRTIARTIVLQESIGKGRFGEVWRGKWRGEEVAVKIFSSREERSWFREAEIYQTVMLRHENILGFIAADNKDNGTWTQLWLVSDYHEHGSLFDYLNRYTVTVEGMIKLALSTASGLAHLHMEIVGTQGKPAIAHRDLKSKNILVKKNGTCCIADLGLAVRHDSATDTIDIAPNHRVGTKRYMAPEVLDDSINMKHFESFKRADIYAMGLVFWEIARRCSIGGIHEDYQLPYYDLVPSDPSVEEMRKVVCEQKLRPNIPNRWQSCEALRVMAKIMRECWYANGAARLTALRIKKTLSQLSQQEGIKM
Description: as §1

[4] = test system: glioma U251 cells; test: Treatment of glioma cells, qPCR transcriptional analysis (CASP3) and cytotoxicity versus LY2157299; type: cell-based
Description: In this example, compound II-1 and the reference compound LY2157299 were used to treat glioma U251 cells. Samples were collected at 12 hours and 72 hours posttreatment. Total RNA was extracted using the Rneasy Mini or Micro Kit (QIAGEN), and […] of RNA was reverse-transcribed into cDNA using the SuperScript III First-Strand Synthesis System (Invitrogen). Quantitative PCR was performed using SYBR Premix Ex Taq (TaKaRa) on a Thermal Cycler Dice Real-Time System (TaKaRa), with beta-Actin serving as an internal control. All data were analyzed using the delta-Ct method. Each experiment was performed in triplicate, and variance analysis was conducted. […] Table 3. Primers for transcriptional analysis of cells treated with compound II-1

[5] = same concentration as in the 330 kinase screen

Sequence of BMPR1B kinase (O00238 14-502): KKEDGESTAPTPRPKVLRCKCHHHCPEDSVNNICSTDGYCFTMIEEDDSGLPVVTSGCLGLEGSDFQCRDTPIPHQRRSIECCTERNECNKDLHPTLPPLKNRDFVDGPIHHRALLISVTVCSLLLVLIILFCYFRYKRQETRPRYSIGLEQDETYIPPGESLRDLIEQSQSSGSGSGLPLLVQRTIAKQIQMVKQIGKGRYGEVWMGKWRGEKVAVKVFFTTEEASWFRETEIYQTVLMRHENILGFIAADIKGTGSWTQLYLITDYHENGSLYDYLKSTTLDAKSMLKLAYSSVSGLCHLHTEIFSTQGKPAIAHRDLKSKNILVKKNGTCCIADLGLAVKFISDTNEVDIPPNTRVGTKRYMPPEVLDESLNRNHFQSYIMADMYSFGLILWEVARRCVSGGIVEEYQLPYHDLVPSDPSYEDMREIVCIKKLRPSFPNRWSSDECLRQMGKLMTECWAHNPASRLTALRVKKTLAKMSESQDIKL

In the case of `O=C1CN(C(=O)c2n[nH]c3c2CCC3)[C@H]2CCCC[C@@H]2N1` [II-1, (4aS,8aS)-4-(1,4,5,6-tetrahydrocyclopenta[c]pyrazole-3-carbonyl)octahydroquinoxalin-2(1H)-one], the “inhibitory activity against BMPR1B kinase” value [1] was “significant inhibitory activity”, the “inhibition of BMPR2 kinase” value ([2]; different concentrations, up to 12.5 µM, threefold serial dilution, Figure 1C) was “no inhibition” and the “inhibition of kinase activity of BMPR2” value [2, 5] was “did not inhibit”. The “inhibition of TGFBR1 kinase” value ([3]; different concentrations, up to 12.5 µM, threefold serial dilution, Figure 1B) was “no inhibition”, the “inhibition of kinase activity of TGFBR1” value [3, 5] was “did not inhibit” and the “cells remaining in the wells compared to LY2157299” value ([4]; after 72 hours of treatment, Figure 3) was “fewer cells remained”. For the same molecule, the “apoptosis compared to LY2157299” value ([4]; same concentration as LY2157299, Figure 3) was “higher apoptosis”.
